According to publication PMC10017046 (Science Advances, 2023):

Tests used:
[1] = test system: MTLR; conditions: cited from earlier work
[2] = cited from earlier work
[3] = test system: GI motility; conditions: cited from earlier work; for GI motility activity: [51]
[4] = test system: MTLR; conditions: cited from earlier work; remark: listed apart in the source
[5] = test system: gastroparesis; conditions: ref [14], [15]; cited from earlier work
[6] = test system: MTLR, substitution of E119^3.33 with aspartic acid; conditions: E119^3.33 substituted with aspartic acid; ref [16]; cited from earlier work
[7] = target: MTLR L341A (Homo sapiens, UniProt O43193, L341A); test: IP1 accumulation; assay type: cell-based; conditions: MTLR-bearing alanine mutation of L341^7.39
Sequence of MTLR L341A (O43193 whole entry L341A): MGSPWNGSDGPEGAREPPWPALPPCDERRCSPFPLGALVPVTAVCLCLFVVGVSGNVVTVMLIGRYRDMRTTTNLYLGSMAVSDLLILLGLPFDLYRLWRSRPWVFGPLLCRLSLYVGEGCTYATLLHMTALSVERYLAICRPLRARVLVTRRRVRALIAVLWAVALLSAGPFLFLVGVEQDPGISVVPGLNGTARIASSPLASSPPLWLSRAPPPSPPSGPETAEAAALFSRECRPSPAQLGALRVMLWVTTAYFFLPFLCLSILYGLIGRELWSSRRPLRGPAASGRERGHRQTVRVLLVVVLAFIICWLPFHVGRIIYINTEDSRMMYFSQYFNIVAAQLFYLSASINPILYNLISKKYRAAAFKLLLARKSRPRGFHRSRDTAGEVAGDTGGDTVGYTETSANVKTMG

[8] = test system: MTLR; conditions: cited from earlier work; remark: listed apart in the source
[9] = test system: MTLR; conditions: camicinal; ref [51]; cited from earlier work

## CC[C@H]1OC(=O)[C@H](C)[C@@H](O[C@H]2C[C@@](C)(OC)C[C@H](C)O2)[C@H](C)[C@@H](O[C@@H]2O[C@H](C)C[C@H](N(C)CC)[C@H]2O)[C@@]2(C)CC(C)=C(O2)[C@H](C)[C@@H](O)[C@H]1C [ABT-229]
[1]; compared with motilin and erythromycin, ref [52], [53]
  desensitization-inducing effect: more potent desensitization-inducing effect compared with motilin and erythromycin
[1]; ref [52], [53]
  receptor internalization: relatively high ability to induce receptor internalization

## atilmotin
[2]; ref [50]
  adverse effects: not associated with any central nervous system–, respiratory system–, or cardiovascular system–related adverse effects

## CC[C@H]1OC(=O)[C@H](C)[C@@H](O[C@H]2C[C@@](C)(OC)[C@@H](O)[C@H](C)O2)[C@H](C)[C@@H](O[C@@H]2O[C@H](C)C[C@H](N(C)C)[C@H]2O)[C@](C)(O)C[C@@H](C)CN(C)[C@H](C)[C@@H](O)[C@]1(C)O [azithromycin]
[3]; ref [9]
  GI motility activity: mimic the GI motility activity of motilin
[2]; long-term use, azithromycin, ref [4], [15]
  GI disturbances: often causes unexpected GI disturbances

## motilin analog [1-12]: motilin analog [1-12] (FVPIFTYGELQR; Motilin; UniProt P12872 26-37, looked up, fragment)
[4]; motilin analog [1-12] compared with analog [1-11], ref [4]
  fold increased binding affinity: 158 -fold

## CC[C@H]1OC(=O)[C@H](C)[C@@H](O[C@H]2C[C@@](C)(OC)[C@@H](O)[C@H](C)O2)[C@H](C)[C@@H](O[C@@H]2O[C@H](C)C[C@H](N(C)C)[C@H]2O)[C@](C)(O)C[C@@H](C)C(=O)[C@H](C)[C@@H](O)[C@]1(C)O [erythromycin]
[5]
  effectiveness in gastroparesis: effective treatment for gastroparesis
[6]
  ligand activity: marked decrease in ligand activity
[3]; ref [9], [10]
  GI contractile activity: mimic exogenous motilin in GI contractile activity
[3]; ref [9]
  GI motility activity: mimic the GI motility activity of motilin
[7]
  erythromycin activity (in words): markedly decreased erythromycin activities
[4]; ref [16], [35]
  role of ECL2 regions of MTLR for erythromycin: not critical for erythromycin
[8]; erythromycin versus motilin, ref [4]
  weaker MTLR activation ability than motilin: ~ 1000 -fold
[8]; ref [11]
  MTLR agonism: agonist for MTLR

## CC[C@H]1OC(=O)[C@H](C)[C@@H](O[C@H]2C[C@@](C)(OC)[C@@H](O)[C@H](C)O2)[C@H](C)[C@@H](O[C@@H]2O[C@H](C)C[C@H](N(C)C(C)C)[C@H]2O)[C@@]2(C)CC(C)=C(O2)[C@H](C)C(=O)[C@]1(C)OC [mitemcinal]
[1]; ref [54]
  desensitization effect: much more improved

## C[C@H]1CN(Cc2ccc(CC(=O)N3CCC(Nc4cccc(F)c4)CC3)cc2)CCN1 [Camicinal, camicinal]
[3]; ref [51]
  gastric cholinergic activity: long-lasting gastric cholinergic activity
[8]; ref [51]
  oral effectiveness as MTLR agonist: orally effective MTLR agonist
[9]
  receptor selectivity: high receptor selectivity
